Format in all cases: cell-based
The target in one test is T1, PLK1 (Homo sapiens, UniProt P53350).
T1 construct: endogenous in cells; host or cells: HeLa LgBit (Plk1-HiBit KI): HeLa cells stably expressing LgBit, with HiBit knocked into the endogenous Plk1 locus by CRISPR/Cas9
The experiment in a line: Luciferase assay for PLK1 in HeLa LgBit (Plk1-HiBit KI) cell line. To be noted: 300 nM compound, luminescence after 9 hours, read-out: Activity: ratio of the luminescense value of compound treatment group to DMSO treatment group. How it is done:
2. Luciferase Assay for PLK1
(1) Preparation and Culture of HeLa LgBit (Plk1-HiBit KI) Cell Line
A HeLa cell line in which the LgBit vector was transfected and expressed stably was prepared. Then, after constructing gRNA and donor to express the HiBit amino acid sequence behind the C-terminal of the Plk1 gene, which was inherent in the cell, it was inserted into the cell together with a vector capable of expressing CRISPR/Cas9. Only the cells in which the insertion was completed and knock-in had progressed were selected, sub-cultured and used.
(2) Treatment of Compounds of the Present Invention and Method of Luciferase Assay
In the case of HeLa LgBit (Plk1-HiBit KI), the compounds were treated after being released after thymidine block, and the process was as follows. Thymidine (Sigma-Aldrich Cat. No. T9250-5G) was completely dissolved in DW and used in the experiment. For thymidine block, the products were treated with 2 mM of thymidine and then incubated for 24 hours. For release and chemical treatment, the medium was suctioned and washed with 1×PBS. TrypLE™ was added and incubated in 37° C. CO2 incubator for 5 min. Cells neutralized by adding complete media were counted through a counter. For each well of a 96-well culture plate (SPL), 3.3×10^4 cells and a total medium volume of 150 μL were seeded and incubated in a CO2 incubator.
Each cell line was incubated in a CO2 incubator for 18 hours, and Endurazine was added to each well to make up 4% of the total volume. After adding the compound of the present invention in a 96-well white plate (SPL) to a concentration of 300 nM, the wavelength of the plate reader (BMG Labtech, CLARIOstar Plus) was set to […], and then the luminescence was tracked in real time.
In Table 2, Activity represents the ratio of the luminescense value of each Exemplary Compound treatment group to DMSO treatment group (+++: <0.3, ++<0.6, +<0.7).
(With HiBiT, luminescence reflects the tagged protein that the partner subunit can reach.)

For another test, the system named is NCI-H526 cell line. The experiment in a line: Cell viability assay for H526 cell line. To be noted: Homo sapiens, NCI-H526, 120 h; H526 cells, 5 days, EZ-Cytox, 3000 nM to 0.46 nM. As for the experimental part: 3. Cell Viability Assay for H526 Cell Line
(1) Culture of NCI-H526 Cell Line
(2) Treatment of Compounds of the Present Invention and Method of Cell Viability Assay
After treating the compound to each well to make the total volume of 200 μL, it was cultured in a CO2 incubator (Thermo Fisher Science, Cat. No. 4111) for 5 days.
The absorbance of the completely cultured sample was measured by setting the wavelength of a plate reader (BMG Labtech, CLARIOstar Plus) to […], and was measured after shaking for 3 minutes in a plate reader before measurement.
In Table 3, Activity represents IC50 value of each Exemplary Compound treatment group to H526 cell line (A: <30 nM, B: <50 nM, C: <100 nM, D: <200 nM, E: <400 nM).

The next test concerns MRC-5 cell line. Put plainly: Cell viability assay (cytotoxicity) for MRC-5 cell line. To be noted: Homo sapiens, MRC5, 120 h; MRC-5 normal cell line, 5 days, EZ-Cytox, 10000 nM to 1.52 nM; read-out: Activity: IC50 value to MRC-5 cell line (Exemplary Compounds). As for the experimental part: 4. Cell Viability Assay for MRC-5 Cell Line
(1) Culture of MRC-5 Cell Line
Passage of cultured cells was maintained within P15.
(2) Treatment of Compounds of the Present Invention
Then, it was cultured in 37° C.
(3) Cytotoxicity Experiment
CO2 incubator for 4 hours.
Cell Viability Assay for MRC-5 cell line

Some results are limits rather than exact numbers.

As a reminder, the IC50 is the concentration at which inhibition is half-maximal.

T1 sequence (P53350 whole entry): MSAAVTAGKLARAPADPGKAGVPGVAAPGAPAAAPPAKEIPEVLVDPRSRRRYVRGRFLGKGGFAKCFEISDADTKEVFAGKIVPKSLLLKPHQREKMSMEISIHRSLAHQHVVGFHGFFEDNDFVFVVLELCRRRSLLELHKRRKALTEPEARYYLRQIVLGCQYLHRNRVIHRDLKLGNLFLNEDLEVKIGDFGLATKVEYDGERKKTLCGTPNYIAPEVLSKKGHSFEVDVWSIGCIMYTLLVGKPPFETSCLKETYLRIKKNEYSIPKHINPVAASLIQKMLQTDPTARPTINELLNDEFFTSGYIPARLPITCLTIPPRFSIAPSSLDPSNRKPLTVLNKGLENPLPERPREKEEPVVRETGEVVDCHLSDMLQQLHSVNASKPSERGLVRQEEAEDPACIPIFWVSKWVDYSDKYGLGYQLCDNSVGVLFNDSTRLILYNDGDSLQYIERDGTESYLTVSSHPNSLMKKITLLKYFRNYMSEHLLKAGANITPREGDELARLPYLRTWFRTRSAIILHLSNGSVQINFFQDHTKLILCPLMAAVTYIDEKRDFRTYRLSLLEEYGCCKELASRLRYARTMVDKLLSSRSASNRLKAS

Take `COc1cc(C(=O)NN2CCC([C@@H](C)CN3CCN(c4ccc(C5CCC(=O)NC5=O)cc4F)CC3)CC2)ccc1Nc1ncc2c(n1)N(C1CCCC1)CC(F)(F)C(=O)N2C` (stereo partly drawn) [Compound 19, 4-((9-cyclopentyl-7,7-difluoro-5-methyl-6-oxo-6,7,8,9-tetrahydro-5H-pyrimido[4,5-b][1,4]diazepin-2-yl)amino)-N-(4-((2R)-1-(4-(4-(2,6-dioxopiperidin-3-yl)-2-fluorophenyl)piperazin-1-yl)propan-2-yl)piperidin-1-yl)-3-methoxybenzamide]: at PLK1, the remaining activity at 0.3 µM was less than 30%. Further, the IC50 in the test on NCI-H526 cell line was less than 0.03 µM; in the test on MRC-5 cell line, greater than 10 µM.
For `COc1cc(C(=O)NN2CCC([C@H](C)CN3CCN(c4ccc(C5CCC(=O)NC5=O)cc4F)CC3)CC2)ccc1Nc1ncc2c(n1)N(C1CCCC1)CC(F)(F)C(=O)N2C` (stereo partly drawn) [Compound 20, 4-((9-cyclopentyl-7,7-difluoro-5-methyl-6-oxo-6,7,8,9-tetrahydro-5H-pyrimido[4,5-b][1,4]diazepin-2-yl)amino)-N-(4-((2S)-1-(4-(4-(2,6-dioxopiperidin-3-yl)-2-fluorophenyl)piperazin-1-yl)propan-2-yl)piperidin-1-yl)-3-methoxybenzamide] the same measures were less than 30%, less than 0.05 µM and greater than 10 µM.
Turning to `COc1cc(C(=O)NC2CCN(C(=O)CCN3CCN(c4ccc(C5CCC(=O)NC5=O)cc4)CC3)CC2)ccc1Nc1ncc2c(n1)N(C1CCCC1)CC(F)(F)C(=O)N2C` (stereo not drawn) [Compound 5, 4-((9-cyclopentyl-7,7-difluoro-5-methyl-6-oxo-6,7,8,9-tetrahydro-5H-pyrimido[4,5-b][1,4]diazepin-2-yl)amino)-N-(1-(3-(4-(4-(2,6-dioxopiperidin-3-yl)phenyl)piperazin-1-yl)propanoyl)piperidin-4-yl)-3-methoxybenzamide], on PLK1, the remaining activity at 0.3 µM is less than 60%. Moreover, the IC50 with NCI-H526 cell line was less than 0.03 µM; in the test on MRC-5 cell line, greater than 10 µM.
For `COc1cc(C(=O)NC2CCN(C(=O)CCCOc3cccc(C4CCC(=O)NC4=O)c3)CC2)c(F)cc1Nc1ncc2c(n1)N(C1CCCC1)CC(F)(F)C(=O)N2C` (stereo not drawn) [Compound 2, 4-((9-cyclopentyl-7,7-difluoro-5-methyl-6-oxo-6,7,8,9-tetrahydro-5H-pyrimido[4,5-b][1,4]diazepin-2-yl)amino)-N-(1-(4-(3-(2,6-dioxopiperidin-3-yl)phenoxy)butanoyl)piperidin-4-yl)-2-fluoro-5-methoxybenzamide] the same measures were less than 60%, less than 0.05 µM and greater than 10 µM.
Regarding `COc1cc(C(=O)NC2CCC(N(C)CC3CCN(c4ccc(C5CCC(=O)NC5=O)cc4F)CC3)CC2)ccc1Nc1ncc2c(n1)N(C1CCCC1)CC(F)(F)C(=O)N2C` (stereo not drawn) [Compound 7, 4-((9-cyclopentyl-7,7-difluoro-5-methyl-6-oxo-6,7,8,9-tetrahydro-5H-pyrimido[4,5-b][1,4]diazepin-2-yl)amino)-N-((1r,4r)-4-(((1-(4-(2,6-dioxopiperidin-3-yl)-2-fluorophenyl)piperidin-4-yl)methyl)(methyl)amino)cyclohexyl)-3-methoxybenzamide], the remaining activity at 0.3 µM on PLK1 was less than 30%. Also, the IC50 in the test with NCI-H526 cell line was less than 0.03 µM; in the test on MRC-5 cell line it was greater than 10 µM.
The matching figures for `COc1cc(C(=O)NC2CC3(CCN(CC4CCN(c5ccc(C6CCC(=O)NC6=O)nc5)CC4)CC3)C2)ccc1Nc1ncc2c(n1)N(C1CCCC1)CC(F)(F)C(=O)N2C` (stereo not drawn) [Compound 39, 4-((9-cyclopentyl-7,7-difluoro-5-methyl-6-oxo-6,7,8,9-tetrahydro-5H-pyrimido[4,5-b][1,4]diazepin-2-yl)amino)-N-(7-((1-(6-(2,6-dioxopiperidin-3-yl)pyridin-3-yl)piperidin-4-yl)methyl)-7-azaspiro[3.5]nonan-2-yl)-3-methoxybenzamide]: less than 60%, less than 0.03 µM and greater than 10 µM.
For `COc1cc(C(=O)NC2CCCN(C(=O)CN3CCN(c4ccc(C5CCC(=O)NC5=O)cc4F)CC3)C2)ccc1Nc1ncc2c(n1)N(C1CCCC1)CC(F)(F)C(=O)N2C` (stereo not drawn) [Compound 13, 4-((9-cyclopentyl-7,7-difluoro-5-methyl-6-oxo-6,7,8,9-tetrahydro-5H-pyrimido[4,5-b][1,4]diazepin-2-yl)amino)-N-(1-(2-(4-(4-(2,6-dioxopiperidin-3-yl)-2-fluorophenyl)piperazin-1-yl)acetyl)piperidin-3-yl)-3-methoxybenzamide], the remaining activity at 0.3 µM on PLK1 was less than 60%. The IC50 in the test with NCI-H526 cell line was less than 0.05 µM; in the test on MRC-5 cell line it was greater than 10 µM.
For `COc1cc(C(=O)NC2CC3(CCN(CC4CCN(c5ccc(C6CCC(=O)NC6=O)cc5)CC4)CC3)C2)ccc1Nc1ncc2c(n1)N(C1CCCC1)CC(F)(F)C(=O)N2C` (stereo not drawn) [Compound 16, 4-((9-cyclopentyl-7,7-difluoro-5-methyl-6-oxo-6,7,8,9-tetrahydro-5H-pyrimido[4,5-b][1,4]diazepin-2-yl)amino)-N-(7-((1-(4-(2,6-dioxopiperidin-3-yl)phenyl)piperidin-4-yl)methyl)-7-azaspiro[3.5]nonan-2-yl)-3-methoxybenzamide] the same measures were less than 30%, less than 0.03 µM and 9.12 µM.
As for `COc1cc(C(=O)NC2CCN(C(=O)CCN3CCN(c4cccc(C5CCC(=O)NC5=O)n4)CC3)CC2)ccc1Nc1ncc2c(n1)N(C1CCCC1)CC(F)(F)C(=O)N2C` (stereo not drawn) [Compound 36, 4-((9-cyclopentyl-7,7-difluoro-5-methyl-6-oxo-6,7,8,9-tetrahydro-5H-pyrimido[4,5-b][1,4]diazepin-2-yl)amino)-N-(1-(3-(4-(6-(2,6-dioxopiperidin-3-yl)pyridin-2-yl)piperazin-1-yl)propanoyl)piperidin-4-yl)-3-methoxybenzamide], the remaining activity at 0.3 µM at PLK1 was less than 60%. Further, the figures for the IC50 with NCI-H526 cell line and with MRC-5 cell line were less than 0.03 µM and greater than 10 µM, respectively.
The matching figures for `COc1cc(C(=O)NC2CCN(C(=O)CCN3CCN(c4ccc(C5CCC(=O)NC5=O)cc4F)CC3)CC2)ccc1Nc1ncc2c(n1)N(C1CCCC1)CC(F)(F)C(=O)N2C` (stereo not drawn) [Compound 11, 4-((9-cyclopentyl-7,7-difluoro-5-methyl-6-oxo-6,7,8,9-tetrahydro-5H-pyrimido[4,5-b][1,4]diazepin-2-yl)amino)-N-(1-(3-(4-(4-(2,6-dioxopiperidin-3-yl)-2-fluorophenyl)piperazin-1-yl)propanoyl)piperidin-4-yl)-3-methoxybenzamide]: less than 30%, less than 0.03 µM and greater than 10 µM.
For `COc1cc(C(=O)NC2CC3(CCN(CC4CCN(c5ccc(C6CCC(=O)NC6=O)cc5F)CC4C)CC3)C2)ccc1Nc1ncc2c(n1)N(C1CCCC1)CC(F)(F)C(=O)N2C` (stereo not drawn) [Compound 27, 4-((9-cyclopentyl-7,7-difluoro-5-methyl-6-oxo-6,7,8,9-tetrahydro-5H-pyrimido[4,5-b][1,4]diazepin-2-yl)amino)-N-(7-((1-(4-(2,6-dioxopiperidin-3-yl)-2-fluorophenyl)-3-methylpiperidin-4-yl)methyl)-7-azaspiro[3.5]nonan-2-yl)-3-methoxybenzamide] the same measures were less than 60%, less than 0.03 µM and greater than 10 µM.

For the origin of these results see US11912710B2 (UPPTHERA, INC., priority 2021, dated 2024).
